ChEMBL document CHEMBL5614409, “Discovery of potent HIV-1 NNRTIs by CuAAC click-chemistry-based miniaturized synthesis, rapid screening and structure optimization” (Eur J Med Chem, 2024)

biological target: Human immunodeficiency virus type 1 reverse transcriptase (Human immunodeficiency virus 1) (UniProt Q72547); assay: Inhibition of HIV-1 reverse transcriptase incubated for 2 hrs in presence of template and viral nucleotides by ELISA relative to control; parameters: concentration or dose not given beside the values; details: concentration not given here

Row | SMILES | inhibition [%]
1 | Cc1cc(C#N)cc(C)c1Oc1ccnc(NC2CCN(Cc3cn(Cc4ccc(B(O)O)cc4)nn3)CC2)n1 | 89.8
2 | Cc1cc(C#N)cc(C)c1Oc1ccnc(NC2CCN(Cc3cn(Cc4ccc(S(N)(=O)=O)cc4)nn3)CC2)n1 | 89.3
3 | COC(=O)Cn1cc(CCNc2nccc(Oc3c(C)cc(/C=C/C#N)cc3C)n2)nn1 | 65.3
4 | Cc1cc(C#N)cc(C)c1Oc1ccnc(NC2CCN(Cc3cn(CC(=O)Nc4ccc(S(C)(=O)=O)cc4)nn3)CC2)n1 | 93.8

Next, values leading:

Row | inhibition [%] | SMILES
5 | 69.2 | Cc1cc(/C=C/C#N)cc(C)c1Oc1ccnc(NCCc2cn(Cc3ccc(S(N)(=O)=O)cc3)nn2)n1
6 | 51.3 | Cc1cc(C#N)cc(C)c1Oc1ccnc(NCCc2cn(Cc3ccc(Cl)cc3)nn2)n1
7 | 55 | Cc1ccccc1Cn1cc(CCNc2nccc(Oc3c(C)cc(C#N)cc3C)n2)nn1

system: Human immunodeficiency virus 1; assay: Antiviral activity against HIV1 IIIB infected in MT4 cells assessed as reduction in virus induced cytopathic effect incubated for 5 days by MTT method; format: functional, organism-based; details: Human immunodeficiency virus 1, IIIB, MT4, 120 h

Row | SMILES | EC50 [nM]
8 | Cc1cc(C#N)cc(C)c1Oc1ccnc(NC2CCN(Cc3cn(CC(=O)Nc4ccc(S(C)(=O)=O)cc4)nn3)CC2)n1 | 5

system: not listed separately; assay: Cytotoxicity against human MT4 cells assessed as reduction in cell viability incubated for 5 days by MTT method; format: toxicity, cell-based; details: time 5 day

Row | SMILES | CC50 at 120 h [nM]
9 | Cc1cc(C#N)cc(C)c1Oc1ccnc(NC2CCN(Cc3cn(CC(=O)Nc4ccc(S(C)(=O)=O)cc4)nn3)CC2)n1 | 12200

system: not listed separately; assay: Selectivity index, ratio of CC50 for human MT4 cells to EC50 for antiviral activity against HIV1 IIIB infected in MT4 cells; format: toxicity, cell-based; details: read-out: Ratio CC50/EC50

Row | SMILES | selectivity ratio
10 | Cc1cc(C#N)cc(C)c1Oc1ccnc(NC2CCN(Cc3cn(CC(=O)Nc4ccc(S(C)(=O)=O)cc4)nn3)CC2)n1 | 2690

system: Human immunodeficiency virus 1; assay: Antiviral activity against HIV1 IIIB harboring L100I mutant infected in MT4 cells assessed as reduction in virus induced cytopathic effect incubated for 5 days by MTT method; format: functional, organism-based; details: Human immunodeficiency virus 1, IIIB, MT4, 120 h

Row | SMILES | EC50 [nM]
11 | Cc1cc(C#N)cc(C)c1Oc1ccnc(NC2CCN(Cc3cn(CC(=O)Nc4ccc(S(C)(=O)=O)cc4)nn3)CC2)n1 | 228

system: Human immunodeficiency virus 1; assay: Antiviral activity against HIV1 IIIB harboring K103 N mutant infected in MT4 cells assessed as reduction in virus induced cytopathic effect incubated for 5 days by MTT method; format: functional, organism-based; details: Human immunodeficiency virus 1, IIIB, MT4, 120 h

Row | SMILES | EC50 [nM]
12 | Cc1cc(C#N)cc(C)c1Oc1ccnc(NC2CCN(Cc3cn(CC(=O)Nc4ccc(S(C)(=O)=O)cc4)nn3)CC2)n1 | 16

system: Human immunodeficiency virus 1; assay: Antiviral activity against HIV1 IIIB harboring Y181C mutant infected in MT4 cells assessed as reduction in virus induced cytopathic effect incubated for 5 days by MTT method; format: functional, organism-based; details: Human immunodeficiency virus 1, IIIB, MT4, 120 h

Row | SMILES | EC50 [nM]
13 | Cc1cc(C#N)cc(C)c1Oc1ccnc(NC2CCN(Cc3cn(CC(=O)Nc4ccc(S(C)(=O)=O)cc4)nn3)CC2)n1 | 34

system: Human immunodeficiency virus 1; assay: Antiviral activity against HIV1 IIIB harboring Y188L mutant infected in MT4 cells assessed as reduction in virus induced cytopathic effect incubated for 5 days by MTT method; format: functional, organism-based; details: Human immunodeficiency virus 1, IIIB, MT4, 120 h

Row | SMILES | EC50 [nM]
14 | Cc1cc(C#N)cc(C)c1Oc1ccnc(NC2CCN(Cc3cn(CC(=O)Nc4ccc(S(C)(=O)=O)cc4)nn3)CC2)n1 | 260

system: Human immunodeficiency virus 1; assay: Antiviral activity against HIV1 IIIB harboring E138K mutant infected in MT4 cells assessed as reduction in virus induced cytopathic effect incubated for 5 days by MTT method; format: functional, organism-based; details: Human immunodeficiency virus 1, IIIB, MT4, 120 h

Row | SMILES | EC50 [nM]
15 | Cc1cc(C#N)cc(C)c1Oc1ccnc(NC2CCN(Cc3cn(CC(=O)Nc4ccc(S(C)(=O)=O)cc4)nn3)CC2)n1 | 31

system: Human immunodeficiency virus 1; assay: Antiviral activity against HIV1 IIIB harboring F227L/V106A double mutant infected in MT4 cells assessed as reduction in virus induced cytopathic effect incubated for 5 days by MTT method; format: functional, organism-based; details: Human immunodeficiency virus 1, IIIB, MT4, 120 h

Row | SMILES | EC50 [nM]
16 | Cc1cc(C#N)cc(C)c1Oc1ccnc(NC2CCN(Cc3cn(CC(=O)Nc4ccc(S(C)(=O)=O)cc4)nn3)CC2)n1 | 2880

system: Human immunodeficiency virus 1; assay: Antiviral activity against HIV1 IIIB harboring RES056 mutant infected in MT4 cells assessed as reduction in virus induced cytopathic effect incubated for 5 days by MTT method; format: functional, organism-based; details: Human immunodeficiency virus 1, IIIB, MT4, 120 h

Row | SMILES | EC50 [nM]
17 | Cc1cc(C#N)cc(C)c1Oc1ccnc(NC2CCN(Cc3cn(CC(=O)Nc4ccc(S(C)(=O)=O)cc4)nn3)CC2)n1 | 3410
